Laboratory results: PubChem BioAssay AID1259407 (Chemical Carcinogenesis Research Information System (CCRIS), 2018)
The source made the active and inactive calls. No rule for the calls is given here.

Tested on: CCRIS mutagenicity, Ames/micronucleus/aberration tests
Experiment: CCRIS mutagenicity studies
[1] = Test System: AMES SALMONELLA TYPHIMURIUM, Strain/Indicator: TA98, Metabolic Activation: NONE, Method: PREINCUBATION
[2] = Test System: AMES SALMONELLA TYPHIMURIUM, Strain/Indicator: TA100, Metabolic Activation: NONE, Method: PREINCUBATION

O=C(Cl)c1ccc(C(=O)Cl)cc1
mutagenic call [1]: active; positive | mutagenic call (Test System: AMES SALMONELLA TYPHIMURIUM, Strain/Indicator: TA98, Metabolic Activation: RAT LIVER S-9, PCB, Method: PREINCUBATION): active; positive | mutagenic call [2]: active; positive | mutagenic call (Test System: AMES SALMONELLA TYPHIMURIUM, Strain/Indicator: TA100, Metabolic Activation: RAT LIVER S-9, PCB, Method: PREINCUBATION): active; positive | mutagenic call (Test System: AMES SALMONELLA TYPHIMURIUM, Strain/Indicator: TA104, Metabolic Activation: NONE, Method: PREINCUBATION): active; positive | mutagenic call (Test System: AMES SALMONELLA TYPHIMURIUM, Strain/Indicator: TA104, Metabolic Activation: RAT LIVER S-9, PCB, Method: PREINCUBATION): active; positive | mutagenic call (Test System: E.COLI, Strain/Indicator: WP2 UVRA, Metabolic Activation: NONE, Method: PREINCUBATION): active; positive | mutagenic call (Test System: E.COLI, Strain/Indicator: WP2 UVRA, Metabolic Activation: RAT LIVER S-9, PCB, Method: PREINCUBATION): active; positive

CCCCC/C=C/C(=O)CCc1ccc(O)c(OC)c1
mutagenic call (Test System: AMES SALMONELLA TYPHIMURIUM, Strain/Indicator: TA98, Metabolic Activation: NONE, Method: STANDARD PLATE): inactive; negative | mutagenic call (Test System: AMES SALMONELLA TYPHIMURIUM, Strain/Indicator: TA98, Metabolic Activation: RAT, LIVER, S-9, AROCLOR 1254, Method: STANDARD PLATE): inactive; negative | mutagenic call (Test System: AMES SALMONELLA TYPHIMURIUM, Strain/Indicator: TA100, Metabolic Activation: NONE, Method: STANDARD PLATE): inactive; negative | mutagenic call (Test System: AMES SALMONELLA TYPHIMURIUM, Strain/Indicator: TA100, Metabolic Activation: RAT, LIVER, S-9, AROCLOR 1254, Method: STANDARD PLATE): active; positive | mutagenic call (Test System: AMES SALMONELLA TYPHIMURIUM, Strain/Indicator: TA1535, Metabolic Activation: NONE, Method: STANDARD PLATE): inactive; negative | mutagenic call (Test System: AMES SALMONELLA TYPHIMURIUM, Strain/Indicator: TA1535, Metabolic Activation: RAT, LIVER, S-9, AROCLOR 1254, Method: STANDARD PLATE): active; positive | mutagenic call (Test System: AMES SALMONELLA TYPHIMURIUM, Strain/Indicator: TA1538, Metabolic Activation: NONE, Method: STANDARD PLATE): inactive; negative | mutagenic call (Test System: AMES SALMONELLA TYPHIMURIUM, Strain/Indicator: TA1538, Metabolic Activation: RAT, LIVER, S-9, AROCLOR 1254, Method: STANDARD PLATE): inactive; negative

COC[CH2][Hg][Cl]
mutagenic call (Test System: AMES SALMONELLA TYPHIMURIUM, Strain/Indicator: TA97, Metabolic Activation: HAMSTER, LIVER, S-9, AROCLOR 1254 (30%), Method: PREINCUBATION): inactive; negative | mutagenic call (Test System: AMES SALMONELLA TYPHIMURIUM, Strain/Indicator: TA97, Metabolic Activation: NONE, Method: PREINCUBATION): inactive; negative | mutagenic call (Test System: AMES SALMONELLA TYPHIMURIUM, Strain/Indicator: TA97, Metabolic Activation: RAT, LIVER, S-9, AROCLOR 1254 (30%), Method: PREINCUBATION): inactive; negative | mutagenic call (Test System: AMES SALMONELLA TYPHIMURIUM, Strain/Indicator: TA98, Metabolic Activation: HAMSTER, LIVER, S-9, AROCLOR 1254 (10%), Method: PREINCUBATION): inactive; negative | mutagenic call (Test System: AMES SALMONELLA TYPHIMURIUM, Strain/Indicator: TA98, Metabolic Activation: HAMSTER, LIVER, S-9, AROCLOR 1254 (30%), Method: PREINCUBATION): inactive; negative | mutagenic call [1]: inactive; negative | mutagenic call (Test System: AMES SALMONELLA TYPHIMURIUM, Strain/Indicator: TA98, Metabolic Activation: RAT, LIVER, S-9, AROCLOR 1254 (10%), Method: PREINCUBATION): inactive; negative | mutagenic call (Test System: AMES SALMONELLA TYPHIMURIUM, Strain/Indicator: TA98, Metabolic Activation: RAT, LIVER, S-9, AROCLOR 1254 (30%), Method: PREINCUBATION): inactive; negative | mutagenic call (Test System: AMES SALMONELLA TYPHIMURIUM, Strain/Indicator: TA100, Metabolic Activation: HAMSTER, LIVER, S-9, AROCLOR 1254 (10%), Method: PREINCUBATION): inactive; negative | mutagenic call (Test System: AMES SALMONELLA TYPHIMURIUM, Strain/Indicator: TA100, Metabolic Activation: HAMSTER, LIVER, S-9, AROCLOR 1254 (30%), Method: PREINCUBATION): inactive; negative | mutagenic call [2]: inactive; negative | mutagenic call (Test System: AMES SALMONELLA TYPHIMURIUM, Strain/Indicator: TA100, Metabolic Activation: RAT, LIVER, S-9, AROCLOR 1254 (10%), Method: PREINCUBATION): inactive; negative | mutagenic call (Test System: AMES SALMONELLA TYPHIMURIUM, Strain/Indicator: TA100, Metabolic Activation: RAT, LIVER, S-9, AROCLOR 1254 (30%), Method: PREINCUBATION): inactive; negative | mutagenic call (Test System: AMES SALMONELLA TYPHIMURIUM, Strain/Indicator: TA1535, Metabolic Activation: HAMSTER, LIVER, S-9, AROCLOR 1254 (10%), Method: PREINCUBATION): inactive; negative | mutagenic call (Test System: AMES SALMONELLA TYPHIMURIUM, Strain/Indicator: TA1535, Metabolic Activation: HAMSTER, LIVER, S-9, AROCLOR 1254 (30%), Method: PREINCUBATION): inactive; negative | mutagenic call (Test System: AMES SALMONELLA TYPHIMURIUM, Strain/Indicator: TA1535, Metabolic Activation: NONE, Method: PREINCUBATION): inactive; negative | mutagenic call (Test System: AMES SALMONELLA TYPHIMURIUM, Strain/Indicator: TA1535, Metabolic Activation: RAT, LIVER, S-9, AROCLOR 1254 (10%), Method: PREINCUBATION): inactive; negative | mutagenic call (Test System: AMES SALMONELLA TYPHIMURIUM, Strain/Indicator: TA1535, Metabolic Activation: RAT, LIVER, S-9, AROCLOR 1254 (30%), Method: PREINCUBATION): inactive; negative | mutagenic call (Test System: AMES SALMONELLA TYPHIMURIUM, Strain/Indicator: TA1537, Metabolic Activation: HAMSTER, LIVER, S-9, AROCLOR 1254 (30%), Method: PREINCUBATION): inactive; negative | mutagenic call (Test System: AMES SALMONELLA TYPHIMURIUM, Strain/Indicator: TA1537, Metabolic Activation: NONE, Method: PREINCUBATION): inactive; negative | mutagenic call (Test System: AMES SALMONELLA TYPHIMURIUM, Strain/Indicator: TA1537, Metabolic Activation: RAT, LIVER, S-9, AROCLOR 1254 (30%), Method: PREINCUBATION): inactive; negative

C=CC(=O)OCCO
mutagenic call (End Point: In vitro chromosomal aberrations, Test System: Chinese hamster lung (CHL/IU) cells, Metabolic Activation: Rat, Liver, S9, Phenobarbital and 5,6-benzoflavone): active; positive (structural changes and ploidy) | mutagenic call (Test System: AMES SALMONELLA TYPHIMURIUM, Strain/Indicator: TA102, Metabolic Activation: RAT, LIVER, S-9, PHENOBARBITAL AND 5,6-BENZOFLAVONE, Method: STANDARD PLATE): inactive; negative | mutagenic call (Test System: AMES SALMONELLA TYPHIMURIUM, Strain/Indicator: TA2638, Metabolic Activation: RAT, LIVER, S-9, PHENOBARBITAL AND 5,6-BENZOFLAVONE, Method: STANDARD PLATE): inactive; negative | mutagenic call (Test System: Ames Salmonella typhimurium, Strain/Indicator: TA98, Metabolic Activation: None, Method: Preincubation): inactive; negative | mutagenic call (Test System: Ames Salmonella typhimurium, Strain/Indicator: TA98, Metabolic Activation: Rat, Liver, S9, Sodium phenobarbital and 5,6-benzoflavone (10%), Method: Preincubation): inactive; negative | mutagenic call (Test System: Ames Salmonella typhimurium, Strain/Indicator: TA100, Metabolic Activation: None, Method: Preincubation): inactive; negative | mutagenic call (Test System: Ames Salmonella typhimurium, Strain/Indicator: TA100, Metabolic Activation: Rat, Liver, S9, Sodium phenobarbital and 5,6-benzoflavone (10%), Method: Preincubation): inactive; negative | mutagenic call (Test System: Ames Salmonella typhimurium, Strain/Indicator: TA1535, Metabolic Activation: None, Method: Preincubation): inactive; negative | mutagenic call (Test System: Ames Salmonella typhimurium, Strain/Indicator: TA1535, Metabolic Activation: Rat, Liver, S9, Sodium phenobarbital and 5,6-benzoflavone (10%), Method: Preincubation): inactive; negative | mutagenic call (Test System: Ames Salmonella typhimurium, Strain/Indicator: TA1537, Metabolic Activation: None, Method: Preincubation): inactive; negative | mutagenic call (Test System: Ames Salmonella typhimurium, Strain/Indicator: TA1537, Metabolic Activation: Rat, Liver, S9, Sodium phenobarbital and 5,6-benzoflavone (10%), Method: Preincubation): inactive; negative | mutagenic call (Test System: E. COLI, Strain/Indicator: WP2 (PKM101), Metabolic Activation: RAT, LIVER, S-9, PHENOBARBITAL AND 5,6-BENZOFLAVONE, Method: STANDARD PLATE): active; positive | mutagenic call (Test System: E. COLI, Strain/Indicator: WP2 UVRA (PKM101), Metabolic Activation: RAT, LIVER, S-9, PHENOBARBITAL AND 5,6-BENZOFLAVONE, Method: STANDARD PLATE): active; positive | mutagenic call (Test System: E. coli, Strain/Indicator: WP2uvrA/pKM101, Metabolic Activation: None, Method: Preincubation): active; positive | mutagenic call (Test System: MOUSE LYMPHOMA, Strain/Indicator: L5178Y (TK+/TK-), Metabolic Activation: NONE, Method: SUSPENSION/PLATE): active; positive
